# According to patent US11420976B2 (priority 2020, dated 2022):
# Like-named read-outs stand apart in the source and are kept apart here.
# How the values were obtained:
# [1] = test system: Human RSV-A (“Long” strain); test: RSV-A assay (CPE, ATPlite readout in Hep-2 cells); assay type: cell-based; details: Hep-2 cells, MOI 0.1, 5-day incubation, ATPlite, read-out: Human RSV-A (“Long” strain) EC50
# Excerpt: Hep-2 cells, (originally derived from tumors grown in irradiated-cortisonised weanling rats that had been injected with epidermoid carcinoma tissue from a person's larynx, but later found to be indistinguishable from HeLa cells by PCR DNA analysis), were used for the culturing of genotype A, “Long” strain RSV. Flasks were inoculated with RSV and viral stocks were collected once cytopathic effect (CPE) was greater than 90%. Viral stocks in 25% sucrose media were snap frozen using liquid nitrogen to increase viral stability. Viral stock titers were quantified by tissue culture infectious dose 50% (TCID50) using 8,000 cells per well and 3-fold viral dilutions across a 96-well plate, cultured for 4 days. Viral stock titers were also quantified by a plaque forming unit assay, as described elsewhere.
# Following extensive parameter testing, the final assay is run as follows: Hep-2 cells are seeded into the inner 60 wells of a 96-well plate at 8,000 cells per well in a volume of 50 μL using Growth Media (DMEM without phenol red, 1% L-Glut, 1% Penn/Strep, 1% nonessential amino acids, 10% heat-inactivated FBS). 2-fold serial dilutions of control and test compounds are added to the wells in duplicate in a total volume of 25 μL. Viral stock is then added to the wells at a multiplicity of infection (MOI) of 0.1 in a volume of 25 μL, bringing the total volume of each well to 100 μL. The MOI is calculated using the PFU/mL, or TCID50 if unavailable. Each 96-well plate has a control column of 6 wells with cells and virus but no compound (negative control, max CPE), a column with cells but no compound or virus (positive control, minimum CPE), and a column with no cells or virus or compound (background plate/reagent control). The control wells with cells but no virus are given an additional […], of growth media containing an equal quantity of sucrose as those wells receiving the viral stock in order to keep consistent in media and volume conditions. The outer wells of the plate are filled with 125 μL of moat media (DMEM, 1% Penn/Strep) to act as a thermal and evaporative moat around the test wells. Following a 5-day incubation period, the plates are read using ATPlite (50 uL added per well), which quantifies the amount of ATP (a measure of cell health) present in each well. Assay plates are read using the Envision luminometer. […] EC50 ranges are as follows: A<0.2 μM; B≥0.2 μM.
# [2] = test system: rHMPV-GFP (recombinant HMPV CAN97-83, MPV-GFP1); test: HMPV antiviral assay (eGFP fluorescence in Vero E6 cells); assay type: cell-based; details: read-out: rHMPV-GFP EC50
# Description: HMPV antiviral activity was evaluated using a recombinant version of HMPV CAN97-83 engineered to contain the coding sequence for enhanced green fluorescence protein (eGFP) in the 3′ end of the virus genome (MPV-GFP1, ViraTree). Vero E6 cells (ATCC #CCL-7) were seeded at a density of 12,000 cells/100 μL/well into 96-well cell plates (VENDOR) one day prior to the assay. On the day of screening, the cell culture medium was aspirated from the wells and cells were washed twice with serum-free Eagle's Modified Essential Medium (EMEM, ATCC #) containing 1% penicillin-streptomycin (Invitrogen) (SF-EMEM). Cell washes were performed by dispensing 100 μL SF-EMEM per well and immediately aspirating the wash medium from the well. Following the second wash step, serum-free OptiMEM (Invitrogen, Cat No.) (SF-OptiMEM) containing 0.5 μg/mL TPCK-Trypsin (VENDOR) and 1% penicillin-streptomycin was added to the cells at 50 μL/well. Compounds were added into the 96-well plates using a JANUS automated liquid handling system (VENDOR). Compounds were initially diluted 1:50 into an intermediate 96-well plate containing SF-OptiMEM prior to transfer to the assay plate (25 μL/well). Each of the test compounds was tested in duplicate wells at final concentrations starting from 8 μM or 2 μM using ½ stepwise dilutions for a total of 8 points. Virus infection was performed by preparing a working stock of MPV-GFP1 at a multiplicity of infection (MOI) equal to 0.05/25 μL and aliquoting 25 μL of virus inoculum to the compound and positive control wells. SF-OptiMEM was added (25 μL/well) to the appropriate wells to serve as a virus-free negative control for the assay. The final DMSO concentration of all wells is 0.5%. Plates were incubated at 32° C., 5% CO2 for 5 days. After 5 days incubation, eGFP fluorescence intensity was measured at […] using a Spectramax i3X plate reader (VENDOR). Percent viral inhibition was calculated using the following equation: y=[[…]]×100 Where XQ is the fluorescence intensity measured in a well containing recombinant MPV-GFP1-infected, compound-treated cells and XP is the average fluorescence intensity measured in the wells containing untreated cells infected with recombinant virus. EC50 values were then calculated by non-linear regression using a four parameter curve logistic equation. The curve fit model employed was XLFit Dose Response One Site Model 200: y=(A+(B/(1+((x/C)^D)))) Where A is the minimum y value, B is the maximum y value, C is the log EC50 value, and D is the slope factor. The EC50 of each compound is listed in Table 2 and EC50 ranges are as follows: A<0.2 μM; B≥0.2 μM.
# [3] = human respiratory syncytial virus, 120 h
Structure (SMILES),"EC50 [1, 3]","EC50 ([2]; Vero C1008, 120 h)",EC50 [1],"EC50 ([2]; Vero E6 cells, MOI 0.05, 5 days at 32° C., eGFP fluorescence)"
COc1cc(C(=O)NC[C@](O)(c2cc3c(c(-c4ccc(F)cc4)n2)OC[C@@]3(N)C(F)(F)F)C(F)(F)F)ccc1OC1CC1 [Example 1],< 200 nM,> 200 nM,–,–
"COc1cc(C(=O)NC[C@](O)(c2cc3c(c(-c4ccc(F)cc4)n2)OC[C@]3(N)C(F)(F)F)C(F)(F)F)ccc1OC1CC1 [Example 3, N—((S)-2-((S)-3-amino-7-(4-fluorophenyl)-3-(trifluoromethyl)-2,3-dihydrofuro[2,3-c]pyridin-5-yl)-3,3,3-trifluoro-2-hydroxypropyl)-4-cyclopropoxy-3-methoxybenzamide]",< 200 nM,> 200 nM,–,–
"COc1cc(C(=O)NC[C@@](O)(c2cc3c(c(-c4ccc(F)cc4)n2)OC[C@]3(N)C(F)(F)F)C(F)(F)F)ccc1OC1CC1 [Example 4, N—((R)-2-((S)-3-amino-7-(4-fluorophenyl)-3-(trifluoromethyl)-2,3-dihydrofuro[2,3-c]pyridin-5-yl)-3,3,3-trifluoro-2-hydroxypropyl)-4-cyclopropoxy-3-methoxybenzamide]",> 200 nM,> 200 nM,–,–
"COc1cc(C(=O)NC[C@](O)(c2cc3c(c(-c4ccc(F)cc4)n2)OC[C@@]3(N)C(F)(F)F)C(F)(F)F)cc2cccnc12 [Example 5, N—((S)-2-((R)-3-amino-7-(4-fluorophenyl)-3-(trifluoromethyl)-2,3-dihydrofuro[2,3-c]pyridin-5-yl)-3,3,3-trifluoro-2-hydroxypropyl)-8-methoxyquinoline-6-carboxamide]",< 200 nM,> 200 nM,–,–
"COc1cc(C(=O)NC[C@](O)(c2cc3c(c(-c4ccc(F)cc4)n2)OC[C@]3(N)C(F)(F)F)C(F)(F)F)cc2cccnc12 [Example 6, N—((S)-2-((S)-3-amino-7-(4-fluorophenyl)-3-(trifluoromethyl)-2,3-dihydrofuro[2,3-c]pyridin-5-yl)-3,3,3-trifluoro-2-hydroxypropyl)-8-methoxyquinoline-6-carboxamide]",< 200 nM,> 200 nM,–,–
"COc1cc(C(=O)NC[C@](C)(O)c2cc3c(c(-c4ccc(F)cc4)n2)OC[C@@]3(N)C(F)(F)F)ccc1OC1CC1 [Example 7, N—((S)-2-((R)-3-amino-7-(4-fluorophenyl)-3-(trifluoromethyl)-2,3-dihydrofuro[2,3-c]pyridin-5-yl)-2-hydroxypropyl)-4-cyclopropoxy-3-methoxybenzamide]",< 200 nM,< 200 nM,–,–
COc1cc(C(=O)NC[C@@](O)(CF)c2cc3c(c(-c4ccc(F)cc4)n2)OC[C@@]3(N)C(F)(F)F)ccc1OC1CC1 [Example 8],–,–,< 200 nM,< 200 nM
"COc1cc(C(=O)NC[C@](O)(c2cc3c(c(-c4ccc(F)cc4)n2)OC[C@@]3(N)C(F)(F)F)C2CC2)ccc1OC1CC1 [Example 9, N—((S)-2-((R)-3-amino-7-(4-fluorophenyl)-3-(trifluoromethyl)-2,3-dihydrofuro[2,3-c]pyridin-5-yl)-2-cyclopropyl-2-hydroxyethyl)-4-cyclopropoxy-3-methoxybenzamide]",< 200 nM,< 200 nM,–,–
COc1cc(C(=O)NC[C@](O)(c2cc3c(c(-c4ccc(F)cc4)n2)OC[C@@]3(N)C(F)(F)F)C2CC2)cc2cccnc12 [Example 10],< 200 nM,> 200 nM,–,–
"N[C@@]1(C(F)(F)F)COc2c1cc([C@@](O)(CNC(=O)c1cc(OC3CC3)c3ncccc3c1)C1CC1)nc2-c1ccc(F)cc1 [Example 11, N—((S)-2-((R)-3-amino-7-(4-fluorophenyl)-3-(trifluoromethyl)-2,3-dihydrofuro[2,3-c]pyridin-5-yl)-2-cyclopropyl-2-hydroxyethyl)-8-cyclopropoxyquinoline-6-carboxamide]",< 200 nM,> 200 nM,–,–
"COc1cc(C(=O)NC[C@](O)(c2cc3c(c(-c4ccc(F)cc4)n2)OC[C@@]3(NC(=O)COC(C)=O)C(F)(F)F)C(F)(F)F)ccc1OC1CC1 [Example 13, 2-(((R)-5-((S)-3-(4-cyclopropoxy-3-methoxybenzamido)-1,1,1-trifluoro-2-hydroxypropan-2-yl)-7-(4-fluorophenyl)-3-(trifluoromethyl)-2,3-dihydrofuro[2,3-c]pyridin-3-yl)amino)-2-oxoethyl acetate]",< 200 nM,> 200 nM,–,–
"N[C@@]1(C(F)(F)F)COc2c1cc([C@@](O)(CNC(=O)c1ccc(OC3CC3)c(OC3CC3)c1)C1CC1)nc2-c1ccc(F)cc1 [Example 19, N—((S)-2-((R)-3-amino-7-(4-fluorophenyl)-3-(trifluoromethyl)-2,3-dihydrofuro[2,3-c]pyridin-5-yl)-2-cyclopropyl-2-hydroxyethyl)-3,4-dicyclopropoxybenzamide]",< 200 nM,< 200 nM,–,–
"C[C@](O)(CNC(=O)c1ccc(OC2CC2)c(OC2CC2)c1)c1cc2c(c(-c3ccc(F)cc3)n1)OC[C@@]2(N)C(F)(F)F [Example 20, N—((S)-2-((R)-3-amino-7-(4-fluorophenyl)-3-(trifluoromethyl)-2,3-dihydrofuro[2,3-c]pyridin-5-yl)-2-hydroxypropyl)-3,4-dicyclopropoxybenzamide]",< 200 nM,< 200 nM,–,–
N[C@@]1(C(F)(F)F)COc2c1cc([C@@](O)(CNC(=O)c1cc(OC3CC3)c3ncccc3c1)C1COC1)nc2-c1ccc(F)cc1 [Example 58],> 200 nM,–,–,–
N[C@@]1(C(F)(F)F)COc2c1cc([C@](O)(CO)CNC(=O)c1cc(OC3CC3)c3ncccc3c1)nc2-c1ccc(F)cc1 [Example 59],> 200 nM,–,–,–
N[C@@]1(C(F)(F)F)COc2c1cc([C@@](O)(CNC(=O)c1cc(OC3CC3)c3c(ccc[n+]3[O-])c1)C1CC1)nc2-c1ccc(F)cc1 [Example 59b],> 200 nM,–,–,–
N[C@@]1(C(F)(F)F)COc2c1cc([C@@](O)(CNC(=O)c1cc(OC3CC3)c3[nH]c(=O)ccc3c1)C1CC1)nc2-c1ccc(F)cc1 [Example 59c],> 200 nM,–,–,–
N[C@@]1(C(F)(F)F)COc2c1cc([C@@](O)(CNC(=O)c1cc(OC3CC3)c3nc(Cl)ccc3c1)C1CC1)nc2-c1ccc(F)cc1 [Example 59d],< 200 nM,–,–,–
Cc1ccc2cc(C(=O)NC[C@](O)(c3cc4c(c(-c5ccc(F)cc5)n3)OC[C@@]4(N)C(F)(F)F)C3CC3)cc(OC3CC3)c2n1 [Example 59e],< 200 nM,–,–,–
Cn1cc2cc(C(=O)NC[C@](O)(c3cc4c(c(-c5ccc(F)cc5)n3)OC[C@@]4(N)C(F)(F)F)C3CC3)cc(F)c2n1 [Example 64],< 200 nM,–,–,–
